# What was measured:
# Assay type in all cases: in vivo
# [1] = test system: morningglory (Ipomoea spp.); assay: Test A pre/postemergence
# How it was run: (§1)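 Seeds in loam–sand blend received preemergence directed soil spray and, concurrently, postemergence application (plants 2–10 cm, 1–2-leaf stage) of compound in non-phytotoxic solvent with surfactant. After about ten days in greenhouse, injury rated visually versus untreated controls, 0 (no effect) to 100 (complete control).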
# [2] = test system: crabgrass (Digitaria sanguinalis); assay: Test A pre/postemergence
# How it was run: as §1
# [3] = test system: barnyardgrass (Echinochloa crus-galli); assay: Test A pre/postemergence
# How it was run: as §1
# [4] = test system: velvetleaf (Abutilon theophrasti); assay: Test A pre/postemergence
# How it was run: as §1
# [5] = test system: redroot pigweed (Amaranthus retroflexus); assay: Test A pre/postemergence
# How it was run: as §1
# [6] = test system: giant foxtail (Setaria faberi); assay: Test A pre/postemergence
# How it was run: as §1
# [7] = test system: chickweed (Stellaria media); assay: Test C postemergence
# How it was run: (§2)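 Percent control is a visual rating (0 none, 100 complete) taken against untreated plants after 12 to 14 days of greenhouse growth. Applications were made preemergence to seeded pots and postemergence to plants at the 1- to 4-leaf stage, in a non-phytotoxic surfactant-containing solvent.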
# [8] = test system: giant foxtail (Setaria faberii); assay: Test C pre/postemergence; conditions: Postemergence
# How it was run: as §2
# [9] = test system: crabgrass (Digitaria sanguinalis); assay: Test C pre/postemergence; conditions: Postemergence
# How it was run: as §2
# [10] = test system: yellow nutsedge (Cyperus esculentus); assay: Test C pre/postemergence; conditions: Postemergence
# How it was run: as §2
# [11] = test system: Surinam grass (Brachiaria decumbens); assay: Test C pre/postemergence; conditions: Postemergence
# How it was run: as §2
# [12] = Postemergence, 125 g ai/ha, 0 to 100 scale (0 no effect, 100 complete control)
# [13] = Postemergence, 500 g ai/ha, 0 to 100 scale (0 no effect, 100 complete control)
# [14] = Preemergence, 125 g ai/ha, 0 to 100 scale where 0 is no effect and 100 is complete control, approximately ten days
# [15] = Preemergence, 500 g ai/ha, 0 to 100 scale where 0 is no effect and 100 is complete control, approximately ten days
# [16] = 125 g ai/ha, scale 0 to 100 (0 no effect, 100 complete control)
compound,measurement,setting,value
Nc1nc(-c2ccc(Br)cc2)nc(C(=O)O)c1Br [Compound 136],"Plant response rating, Morningglory",[1]; [12],70
same,"Plant response rating, Morningglory",[1]; [13],80
same,"Plant response rating, Morningglory",[1]; [14],10
same,"Plant response rating, Morningglory",[1]; [15],20
same,"Plant response rating, Crabgrass",[2]; [12],35
same,"Plant response rating, Crabgrass",[2]; [13],70
same,"Plant response rating, Crabgrass",[2]; [14],20
same,"Plant response rating, Crabgrass",[2]; [15],60
same,"Plant response rating, Barnyardgrass",[3]; [12],50
same,"Plant response rating, Barnyardgrass",[3]; [13],80
same,"Plant response rating, Barnyardgrass",[3]; [14],5
same,"Plant response rating, Barnyardgrass",[3]; [15],40
same,"Plant response rating, Velvetleaf",[4]; [12],85
same,"Plant response rating, Velvetleaf",[4]; [13],95
same,"Plant response rating, Velvetleaf",[4]; [14],30
same,"Plant response rating, Velvetleaf",[4]; [15],75
same,"Plant response rating, Pigweed",[5]; [12],85
same,"Plant response rating, Pigweed",[5]; [13],100
same,"Plant response rating, Pigweed",[5]; [14],45
same,"Plant response rating, Pigweed",[5]; [15],100
same,"Plant response rating, Foxtail, Giant",[6]; [12],75
same,"Plant response rating, Foxtail, Giant",[6]; [13],80
same,"Plant response rating, Foxtail, Giant",[6]; [14],10
same,"Plant response rating, Foxtail, Giant",[6]; [15],60
same,"Plant response rating (scale of 0 to 100), Chickweed",[7]; 16 g ai/ha,45
same,"Plant response rating (scale of 0 to 100), Chickweed",[7]; 31 g ai/ha,50
same,"Plant response rating (scale of 0 to 100), Chickweed",[7]; 62 g ai/ha,50
same,Chickweed plant response rating,[7]; [16],50
same,"Plant response rating (scale of 0 to 100), Foxtail, Giant",[8]; 16 g ai/ha,65
same,"Plant response rating (scale of 0 to 100), Foxtail, Giant",[8]; 31 g ai/ha,75
same,"Plant response rating (scale of 0 to 100), Foxtail, Giant",[8]; 62 g ai/ha,75
same,"Foxtail, Giant plant response rating",[8]; [16],85
same,"Plant response rating (scale of 0 to 100), Crabgrass",[9]; 16 g ai/ha,60
same,"Plant response rating (scale of 0 to 100), Crabgrass",[9]; 31 g ai/ha,75
same,"Plant response rating (scale of 0 to 100), Crabgrass",[9]; 62 g ai/ha,75
same,Crabgrass plant response rating,[9]; [16],75
same,"Plant response rating (scale of 0 to 100), Nutsedge, Yellow",[10]; 16 g ai/ha,60
same,"Plant response rating (scale of 0 to 100), Nutsedge, Yellow",[10]; 31 g ai/ha,65
same,"Plant response rating (scale of 0 to 100), Nutsedge, Yellow",[10]; 62 g ai/ha,75
same,"Nutsedge, Yellow plant response rating",[10]; [16],75
same,"Plant response rating (scale of 0 to 100), Surinam Grass",[11]; 16 g ai/ha,55
same,"Plant response rating (scale of 0 to 100), Surinam Grass",[11]; 31 g ai/ha,65
same,"Plant response rating (scale of 0 to 100), Surinam Grass",[11]; 62 g ai/ha,65
same,Surinam Grass plant response rating,[11]; [16],70

# — patent US8802597B2, “Herbicidal pyrimidines” (E I du Pont de Nemours and Company, priority 2003, dated 2014)
